Test results from US9557338B2 (SIGNAL PHARMACEUTICALS, LLC, priority 2012, dated 2017).
Where two headings read alike, the source gives them in different places.

Legend:
Assay type in all cases: cell-based
Phospho-GSK3β(S9) = assay: Luminex multiplex assay, Phospho-GSK3β(S9); conditions: PC3 cell line; read-out: Luminex GSK-3β
Outline: (§1)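 Cells (PC3; HCT-116, MDA-MB-231 and HT29 with 500 ng/mL recombinant human IGF-I for the final 10 min) treated with compound or rapamycin over a concentration range for 1 h at 37° C, 5% CO2. Lysates read by bead-based Luminex sandwich immunoassay, 3 h at room temperature, RPE anti-rabbit detection, quantified against phosphoprotein standard curves.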

GSK-3β = assay: MSD assay, GSK-3β phosphorylation in cell lysates
Phospho-p70S6K (T389) = assay: MSD assay, phospho-p70S6K (T389) in cell lysates
Description: Determination of Phospho-p70S6K (T389) in Cell Lysates.
MSD® biomarker detection assays provide a rapid and convenient method for measuring the total and phosphorylated levels of protein targets within a single small-volume sample. In the assay, an antibody for a specific protein target is coated on one electrode (or spot) per well. The samples (cell lysates) are added to the well with a solution containing the detection antibody labeled with an electrochemiluminescent (ECL) compound, MSD SULFOTAG™ label, over the course of one or more incubation periods. The total protein present in the sample binds to the capture antibodies immobilized on the working electrode surface; recruitment of the labeled detection antibody by bound phospho-p70S6K completes the sandwich. MSD Read Buffer that provides the appropriate chemical environment for ECL is added and the plate is read using an MSD SECTOR™ Imager. Inside the SECTOR Imager, a voltage is applied to the plate electrodes which cause the labels bound to the electrode surface to emit light. The instrument measures intensity of the emitted light to afford a quantitative measure of the amount of phosphorylated protein present in the sample.
Cells were plated in 96-well flat bottom plates at the required density determined for each cell line and the cells were allowed to equilibrate at 37° C., 5% CO2 overnight. The following day, the cells were treated with Compound 1 over a range of concentrations for one hour in 5% CO2 at 37° C. After the incubation period, the culture medium was removed carefully with an aspirator. The plate was placed on ice and 50 μL of 1× Tris Lysis Buffer were added to each well. The plate was placed on a shaker at 4° C. for one hour to lyse the cells. At that point, the plate was either frozen at −80° C. for later analysis or immediately assayed for phosphoproteins as described below. To monitor interassay variability, Compound 1 was compared among all plates as a reference standard.
The assay plate was incubated with 150 μL of MSD Blocking Buffer for one hour with shaking at room temperature. The plates were washed 3 times with Tris Wash Buffer. Then 35 μL of cell lysate was added to the wells and incubated for one hour with shaking at room temperature. The solution was removed from the wells and the plate was washed 3 times with wash buffer. Twenty-five microliters of the appropriate antibody solution was then incubated for one hour with shaking at room temperature. The solution was removed from the wells and the plate was washed 3 times with wash buffer. Then 150 μL of 1×MSD Read Buffer T was added to each well. The plate was read on the SECTOR Imager plate reader.

Phospho-PRAS40(T246) = assay: Luminex multiplex assay, Phospho-PRAS40(T246); conditions: PC3 cell line; read-out: Luminex PRAS40
Outline: as §1

p70S6K = assay: Luminex multiplex assay, p70S6K phosphorylation in cell lysates
Akt(S473) = assay: Inhibition of Akt(S473) phosphorylation in cell lines; conditions: data not shown
Phospho-4E-BP1(T46) = assay: Luminex multiplex assay, Phospho-4E-BP1(T46); conditions: not inhibited up to concentrations tested; read-out: inhibition of 4E-BP1(T46) phosphorylation
Description: Determination of Phospho-GSK3β(S9), Phospho-PRAS40(T246) and Phospho-4E-BP1(T46) and the Effect of Compound 1 or Rapamycin.
The multiplex Luminex assay format differs from conventional enzyme-linked immunosorbent assay (ELISA) in that the multiplex capture antibody is attached to a polystyrene bead whereas the ELISA capture antibody is attached to the microplate well. The use of the suspension bead-based technology enables the multiplexing capabilities of the Luminex assays. The xMAP® technology uses 5.6 micron polystyrene microspheres, which are internally dyed with red and infrared fluorophores of differing intensities. Each bead is given a unique number, or bead region, allowing differentiation of one bead from another. Beads covalently bound to different specific antibodies can be mixed in the same assay, utilizing a 96-well microplate format. At the completion of the sandwich immunoassay, beads can be read, using the Luminex 100™ or Luminex 200 detection system, in single-file by dual lasers for classification and quantification of each analyte. The Akt-Pathway Phospho 5-plex kit used was custom made and includes the ability to simultaneously measure p-GSK3β (S9), p-PRAS40(T246), and p-4E-BP1(T46).
Cells were plated at the required density. The cells were treated with either Compound 1 or rapamycin over a range of concentrations for 1 hour in 5% CO2 at 37° C. Compound 1 and rapamycin were used at the same concentrations as for the proliferation assay. As for the cell proliferation assay, a reference standard was included in the assay for PC3 cells and the coefficient of variation for assay of p-GSK3β(S9) was 37.8% (n=30), p-PRAS40(T246) was 27.8% (n=30) and for p4E-BP1(T46) was 13.5% (n=4). For three cell lines (HCT-116, MDA-MB-231 and HT29) in the assay for phosphorylation of GSK3β, PRAS40 and 4E-BP1, IGF-I stimulation (500 ng/mL, recombinant human IGF-I) for the last 10 min of incubation was used. The media was aspirated from the wells and the plate was placed on ice. Then 35 μL of Lysis Buffer was added to each well and incubated on ice for at least 30 minutes. During the incubation, the standard curve for each phosphoprotein was prepared. The standards provided were reconstituted and serial dilutions were prepared according to the manufacturer's instructions. At the end of the cell lysis step, […] of the lysate was transferred to a V-bottom plate and spun at 4° C. at 2000 rpm for 5 minutes. Both the 1× Luminex bead and 1× detector antibody solutions were prepared during this time. The 1× bead solution was vortexed and 25 μL was added into each well of a black round bottom plate. Then 50 μL of the 1× detector antibody was added to each well. Fifty microliters (50 μL) of the prepared standards were added to the designated wells. Then 25 μL of the assay diluent was added to each well designated for the compound-treated cell lysates. At the end of the spin, 25 μL of cell lysate was added to the corresponding wells of the black assay plate. The assay plate was covered with the white plate lid and incubated for 3 hours at room temperature on an orbital shaker.
Approximately 10-15 minutes prior to the end of the first incubation, the secondary antibody solution was prepared according to the vendor's protocol. Goat anti-rabbit R-phycoerythrin red fluorescent protein (RPE) supplied as a 10× concentrate was diluted to generate a 1× goat anti-rabbit RPE stock. The 96-well filter plate was pre-wet with 200 μL of 1× Working wash solution. At the end of the 3 hour incubation, a multichannel pipette was used to transfer the entire contents from each assay well into the wells of the filter plate. The liquid from the wells was removed by aspiration with the vacuum manifold. Then 200 μL of 1× Working wash solution was added into each well. The wash solution was aspirated using the vacuum manifold after 15-30 seconds. This wash step was repeated one time. The bottom of the plate was blotted on clean paper towels to remove residual liquid. […]

S6RP(S235/S236) = assay: Inhibition of S6RP(S235/S236) phosphorylation in cell lines; conditions: Homo sapiens, read-out: IC50 for inhibition of S6RP(S235/S236) phosphorylation
[1] = PC3 cell line, read-out: MSD GSK-3β
[2] = PC3 cell line, read-out: MSD p70S6K
[3] = PC3 cell line, read-out: Luminex p70S6K

Compound | IC50 (Phospho-GSK3β(S9)) | IC50 (GSK-3β; [1]) | IC50 (Phospho-p70S6K (T389); [2]) | IC50 (Phospho-PRAS40(T246)) | IC50 (p70S6K; [3]) | other results
COC1CCC(N2C(=O)CNc3ncc(-c4ccc(C(C)(C)O)nc4)nc32)CC1 (stereo not shown) [C-15] | 240 nM | > 500 nM | 82 nM | 96 nM | 32 nM | 
CCN1C(=O)CNc2ncc(-c3ccc(-c4nnc[nH]4)nc3C)nc21 [C-54] | 370 nM | 181 nM | 31 nM | 39 nM | 13 nM | 
COC1CCC(N2C(=O)CNc3ncc(-c4cnc(-c5ncn[nH]5)cc4C)nc32)CC1 (stereo not shown) [C-93] | 2 nM | > 1.5 nM | 1 nM |  |  | 
COCCN1C(=O)CNc2ncc(-c3ccc(-c4nnc[nH]4)nc3C)nc21 [C-14] | 366 nM | 366 nM | 31 nM | 61 nM |  | 
CCN1C(=O)CNc2ncc(-c3cnc4[nH]ccc4c3)nc21 [C-103] | 153 nM | > 500 nM | > 500 nM | 696 nM | 150 nM | 
O=c1[nH]c2ncc(-c3ccc(-c4nc[nH]n4)cc3)nc2n1CCC1CCOCC1 [C-2] | 255 nM | > 1500 nM | 46 nM | 180 nM | 30 nM | 
COCCN1C(=O)CNc2ncc(-c3ccc(-c4nnc[nH]4)nc3C)nc21 [A-9, 1-(2-methoxyethyl)-7-(2-methyl-6-(4H-1,2,4-triazol-3-yl)pyridin-3-yl)-3,4-dihydropyrazino[2,3-b]pyrazin-2(1H)-one] |  |  |  |  |  | IC50 (GSK-3β; Homo sapiens, HCT-116, HCT116 cell line, IGF, read-out: MSD GSK-3β (IGF)): > 2000 nM; IC50 (GSK-3β; Homo sapiens, U-87 MG, U87MG cell line, read-out: MSD GSK-3β): > 2000 nM; IC50 (Phospho-p70S6K (T389); Homo sapiens, HCT-116, HCT116 cell line, IGF, read-out: MSD p70S6K (IGF)): 846 nM; IC50 (Phospho-p70S6K (T389); Homo sapiens, U-87 MG, U87MG cell line, read-out: MSD p70S6K): 268 nM; IC50 (p70S6K; Homo sapiens, HCT-116, HCT116 cell line, IGF, read-out: Luminex p70S6K (IGF)): 103 nM; IC50 (p70S6K; Homo sapiens, U-87 MG, U87MG cell line, read-out: Luminex p70S6K): 37.7 nM
Cc1nc(-c2nnc[nH]2)ccc1-c1cnc2c(n1)N(C(C)C)C(=O)CN2 [C-69] | 342 nM | 394 nM | 80 nM | 285 nM |  | 
COC1CCC(N2C(=O)CNc3ncc(-c4ccc(-c5nnc[nH]5)nc4C)nc32)CC1 (stereo not shown) [C-16] | 141 nM | 152 nM | 13 nM | 43 nM | 3 nM | 
CO[C@H]1C[C@@H]2CC[C@@H](C)[C@@](O)(O2)C(=O)C(=O)N2CCCC[C@H]2C(=O)O[C@H]([C@H](C)C[C@@H]2CC[C@@H](O)[C@H](OC)C2)CC(=O)[C@H](C)/C=C(\C)[C@@H](O)[C@@H](OC)C(=O)[C@H](C)C[C@H](C)/C=C/C=C/C=C/1C [rapamycin, reference compound] |  |  |  |  |  | inhibition of the phosphorylation of Akt(S473) (Akt(S473)): did not inhibit; IC50 (Phospho-4E-BP1(T46)): > 10000 nM; IC50 (S6RP(S235/S236); HCT-116, HCT116 cell line): 0.029 nM; IC50 (S6RP(S235/S236); PC-3, PC3 cell line): 0.019 nM
CCn1c(=O)[nH]c2ncc(-c3ccc(-c4ncn[nH]4)c(F)c3C)nc21 [C-12] | 936 nM | > 5000 nM | 436 nM | 1120 nM | 79 nM | 
Cc1nc(-c2nnc[nH]2)ccc1-c1cnc2c(n1)N(CCC1CCOCC1)C(=O)CN2 [C-9] | 43 nM | 213 nM | 4 nM | 37 nM |  | 
